US20240400561A1, “NOVEL SUBSTITUTED SULFONYLUREA COMPOUNDS AS INHIBITORS OF INTERLEUKIN-1 ACTIVITY” (Viva Star Biosciences (Suzhou) Co., Ltd., priority 2021, published 2024)

These compounds were tested against T1, NLRP3 (Homo sapiens, UniProt Q96P20) (assay: THP-1 cell assay (LPS priming, nigericin), IL1β release by HTRF; called pyroptosis assay, THP IC50). Conditions: NLRP3 inhibitory activity; THP-1 cells, 1.0 ug/mL LPS, compound 3 hrs, nigericin 5 uM 1 hr, IL1β in supernatant.
T1 construct: Seed THP-1 cells (5.56*10^5 cells/mL) containing 1.0 ug/mL LPS; endogenous in cells; host or cells: THP-1 cells
T1 sequence (Q96P20 whole entry): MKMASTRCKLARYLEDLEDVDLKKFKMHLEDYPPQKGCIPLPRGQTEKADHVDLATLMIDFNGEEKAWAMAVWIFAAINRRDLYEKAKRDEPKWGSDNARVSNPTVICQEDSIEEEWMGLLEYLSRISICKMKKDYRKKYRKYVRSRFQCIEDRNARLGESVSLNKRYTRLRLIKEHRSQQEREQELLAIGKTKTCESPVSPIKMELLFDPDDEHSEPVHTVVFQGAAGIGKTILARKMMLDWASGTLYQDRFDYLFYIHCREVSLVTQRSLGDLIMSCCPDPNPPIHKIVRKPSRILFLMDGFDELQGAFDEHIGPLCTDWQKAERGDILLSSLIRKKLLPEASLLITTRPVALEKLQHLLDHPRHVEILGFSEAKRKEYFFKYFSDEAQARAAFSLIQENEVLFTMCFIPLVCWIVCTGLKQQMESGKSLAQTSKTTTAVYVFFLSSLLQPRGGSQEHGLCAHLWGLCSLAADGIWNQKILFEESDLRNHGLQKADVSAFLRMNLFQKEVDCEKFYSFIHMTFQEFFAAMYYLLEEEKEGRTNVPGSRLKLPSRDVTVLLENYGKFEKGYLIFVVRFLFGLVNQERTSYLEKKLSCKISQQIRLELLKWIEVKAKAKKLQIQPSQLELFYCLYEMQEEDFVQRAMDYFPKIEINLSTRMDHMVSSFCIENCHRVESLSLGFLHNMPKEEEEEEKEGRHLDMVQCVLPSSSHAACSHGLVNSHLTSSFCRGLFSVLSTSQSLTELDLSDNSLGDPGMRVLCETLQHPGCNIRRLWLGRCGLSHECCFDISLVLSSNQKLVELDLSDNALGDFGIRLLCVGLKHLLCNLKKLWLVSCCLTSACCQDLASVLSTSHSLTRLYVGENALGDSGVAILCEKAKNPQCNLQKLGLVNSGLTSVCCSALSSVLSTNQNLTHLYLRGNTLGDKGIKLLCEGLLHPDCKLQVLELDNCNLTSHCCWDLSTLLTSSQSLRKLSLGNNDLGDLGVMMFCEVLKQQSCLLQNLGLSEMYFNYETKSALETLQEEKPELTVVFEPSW
Format: cell-based
Experimental: The following method was used for compound screening. • 1. Seed THP-1 cells (5.56*10^5 cells/mL) containing 1.0 ug/mL LPS (SIGMA, L6529) in 45 uL RPMI 1640 medium (without FBS) into 384-well plate (Thermo Scientific, 164688). • 2. Add 5 uL compound (10 doses starting from 5 uM, 1:3 dilution) or vehicle (0.05% DMSO in medium) to the appropriate wells. • 3. Centrifuge the plates at 1000 rpm for 2 mins and incubate for 3 hrs at 37° C., 5% CO2. • 4. Add 5 uL nigericin (MEC, HY-100381) (final conc. 5 uM) to sample wells and positive control wells; add 5 uL RPMI 1640 medium to negative control wells. • 5. Centrifuge plates at 1000 rpm for 2 mins and incubate for 1 hr at 37° C., 5% CO2. • 6. At the end of the incubation period, centrifuge plates at 1000 rpm for 6 mins and transfer 8 uL supernatant into 384-well assay plates (PerkinElmer, 6008280). • 7. Add 8 ul RPMI 1640 medium into each well and spin down for 10 secs. • 8. Prepare the standard solutions and pre-mixed IL1β antibody solution of Human […] kits (PerkinElmer, 62HIL1BPEH) according to the instruction. • 9. Add 16 uL standard solutions into clear wells of 384-well assay plates. • 10. Add 4 uL pre-mixed IL1β antibody solution to all wells including sample wells, positive control wells, negative control wells and standard solutions wells. • 11. Seal the plates, spin down for 10 secs, incubation for overnight at RT and read on an HTRF® compatible reader (BMG LABTECH, PHERAstar FS). • 12. The concentrations of IL1β for treated wells are calculated by the standard curve. • 13. The IC50 data is fitted to a non-liner regression equation (log inhibitor vs. response—Variable slope four parameters)).

| SMILES | IC50 [nM] |
| --- | --- |
| O=C(Nc1c(-c2cnc3ccnn3c2)ccc2c1CCC2)NS(=O)(=O)c1cnn(CC2CC2)c1 [Example 22, 1-(cyclopropylmethyl)-N-((5-(pyrazolo[1,5-a]pyrimidin-6-yl)-2,3-dihydro-1H-inden-4-yl)carbamoyl)-1H-pyrazole-4-sulfonamide] | > 2000 |
| Cc1cc2c(c(NC(=O)NS(=O)(=O)c3ccn(C4CCC4)n3)c1-c1ccn3nccc3c1)CCC2 [Example 23, 1-cyclobutyl-N-((6-methyl-5-(pyrazolo[1,5-a]pyridin-5-yl)-2,3-dihydro-1H-inden-4-yl)carbamoyl)-1H-pyrazole-3-sulfonamide] | ≤ 30 |
| O=C(Nc1c2c(cc(F)c1-c1ccn3nccc3c1)CCC2)NS(=O)(=O)c1ccn(CC2CC2)n1 [Example 24, 1-(cyclopropylmethyl)-N-((6-fluoro-5-(pyrazolo[1,5-a]pyridin-5-yl)-2,3-dihydro-1H-inden-4-yl)carbamoyl)-1H-pyrazole-3-sulfonamide] | ≤ 30 |
| O=C(Nc1c2c(cc(F)c1-c1ccn3nccc3c1)CCC2)NS(=O)(=O)c1ccn(C2CC2)n1 [Example 25, 1-cyclopropyl-N-((6-fluoro-5-(pyrazolo[1,5-a]pyridin-5-yl)-2,3-dihydro-1H-inden-4-yl)carbamoyl)pyrazole-3-sulfonamide] | ≤ 30 |
| CO[C@@H](C)Cn1ccc(S(=O)(=O)NC(=O)Nc2c3c(cc(C)c2-c2ccn4nccc4c2)CCC3)n1 [Example 26, (S)-1-(2-methoxypropyl)-N-((6-methyl-5-(pyrazolo[1,5-a]pyridin-5-yl)-2,3-dihydro-1H-inden-4-yl)carbamoyl)-1H-pyrazole-3-sulfonamide] | ≤ 30 |
| CO[C@H](C)Cn1ccc(S(=O)(=O)NC(=O)Nc2c3c(cc(C)c2-c2ccn4nccc4c2)CCC3)n1 [Example 27, (R)-1-(2-methoxypropyl)-N-((6-methyl-5-(pyrazolo[1,5-a]pyridin-5-yl)-2,3-dihydro-1H-inden-4-yl)carbamoyl)-1H-pyrazole-3-sulfonamide] | ≤ 30 |
| Cc1cc2c(c(NC(=O)NS(=O)(=O)c3cncc(N(C)C4CC4)c3)c1-c1ccn3nccc3c1)CCC2 [Example 29, 5-(cyclopropyl(methyl)amino)-N-((6-methyl-5-(pyrazolo[1,5-a]pyridin-5-yl)-2,3-dihydro-1H-inden-4-yl)carbamoyl)pyridine-3-sulfonamide] | 30 to 300 |
| CN(c1cncc(S(=O)(=O)NC(=O)Nc2c(-c3ccn4nccc4c3)ccc3c2CCC3)c1)C1CC1 [Example 30, 5-(cyclopropyl(methyl)amino)-N-((5-(pyrazolo[1,5-a]pyridin-5-yl)-2,3-dihydro-1H-inden-4-yl)carbamoyl)pyridine-3-sulfonamide] | 30 to 300 |
| O=C(Nc1c(-c2ccn3nccc3c2)ccc2c1CCC2)NS(=O)(=O)c1cncc(NC2CC2)c1 [Example 31, 5-(cyclopropylamino)-N-((5-(pyrazolo[1,5-a]pyridin-5-yl)-2,3-dihydro-1H-inden-4-yl)carbamoyl)pyridine-3-sulfonamide] | ≤ 30 |
| Cc1cc2c(c(NC(=O)NS(=O)(=O)c3ccnc(N4CCOCC4)c3)c1-c1ccn3nccc3c1)CCC2 [Example 32, N-((6-methyl-5-(pyrazolo[1,5-a]pyridin-5-yl)-2,3-dihydro-1H-inden-4-yl)carbamoyl)-2-morpholinopyridine-4-sulfonamide] | ≤ 30 |
| Cc1cc2c(c(NC(=O)NS(=O)(=O)c3ccnc(OC4CC4)c3)c1-c1ccn3nccc3c1)CCC2 [Example 33, 2-cyclopropoxy-N-((6-methyl-5-(pyrazolo[1,5-a]pyridin-5-yl)-2,3-dihydro-1H-inden-4-yl)carbamoyl)pyridine-4-sulfonamide] | ≤ 30 |
| Cc1cc2c(c(NC(=O)NS(=O)(=O)c3cncc(OC4CC4)c3)c1-c1ccn3nccc3c1)CCC2 [Example 34, 5-cyclopropoxy-N-((6-methyl-5-(pyrazolo[1,5-a]pyridin-5-yl)-2,3-dihydro-1H-inden-4-yl)carbamoyl)pyridine-3-sulfonamide] | ≤ 30 |
| Cc1cc2c(c(NC(=O)NS(=O)(=O)c3cncc(OC4CCC4)c3)c1-c1ccn3nccc3c1)CCC2 [Example 35, 5-cyclobutoxy-N-((6-methyl-5-(pyrazolo[1,5-a]pyridin-5-yl)-2,3-dihydro-1H-inden-4-yl)carbamoyl)pyridine-3-sulfonamide] | ≤ 30 |
| Cc1cc2c(c(NC(=O)NS(=O)(=O)c3cncc(N(C)C4CCC4)c3)c1-c1ccn3nccc3c1)CCC2 [Example 36, 5-(cyclobutyl(methyl)amino)-N-((6-methyl-5-(pyrazolo[1,5-a]pyridin-5-yl)-2,3-dihydro-1H-inden-4-yl)carbamoyl)pyridine-3-sulfonamide] | 30 to 300 |
| Cc1cc2c(c(NC(=O)NS(=O)(=O)c3cncc(NC4CC4)c3)c1-c1ccn3nccc3c1)CCC2 [Example 37, 5-(cyclopropylamino)-N-((6-methyl-5-(pyrazolo[1,5-a]pyridin-5-yl)-2,3-dihydro-1H-inden-4-yl)carbamoyl)pyridine-3-sulfonamide] | ≤ 30 |
| Cc1cc2c(c(NC(=O)NS(=O)(=O)c3ccnc(C4CCC4)c3)c1-c1ccn3nccc3c1)CCC2 [Example 38, 2-cyclobutyl-N-((6-methyl-5-(pyrazolo[1,5-a]pyridin-5-yl)-2,3-dihydro-1H-inden-4-yl)carbamoyl)pyridine-4-sulfonamide] | 30 to 300 |
| Cc1cc2c(c(NC(=O)NS(=O)(=O)c3ccc(=O)n(CC4CC4)c3)c1-c1ccn3nccc3c1)CCC2 [Example 39, 1-(cyclopropylmethyl)-N-((6-methyl-5-(pyrazolo[1,5-a]pyridin-5-yl)-2,3-dihydro-1H-inden-4-yl)carbamoyl)-6-oxo-1,6-dihydropyridine-3-sulfonamide] | 30 to 300 |
| CC(C)(O)c1csc(S(=O)(=O)NC(=O)Nc2c(-c3ccnc4[nH]ccc34)ccc3c2CCC3)c1 [Example 40, N-((5-(1H-pyrrolo[2,3-b]pyridin-4-yl)-2,3-dihydro-1H-inden-4-yl)carbamoyl)-4-(2-hydroxypropan-2-yl)thiophene-2-sulfonamide] | ≤ 30 |
| Cn1ccc2c(-c3ccc4c(c3NC(=O)NS(=O)(=O)c3cc(C(C)(C)O)cs3)CCC4)ccnc21 [Example 41, 4-(2-hydroxypropan-2-yl)-N-((5-(1-methyl-1H-pyrrolo[2,3-b]pyridin-4-yl)-2,3-dihydro-1H-inden-4-yl)carbamoyl)thiophene-2-sulfonamide] | ≤ 30 |
| CC(C)(O)c1csc(S(=O)(=O)NC(=O)Nc2c(-c3ccn4ccnc4c3)ccc3c2CCC3)c1 [Example 42, 4-(2-hydroxypropan-2-yl)-N-((5-(imidazo[1,2-a]pyridin-7-yl)-2,3-dihydro-1H-inden-4-yl)carbamoyl)thiophene-2-sulfonamide] | ≤ 30 |
| Cn1cnc2ccc(-c3ccc4c(c3NC(=O)NS(=O)(=O)c3cc(C(C)(C)O)cs3)CCC4)cc21 [Example 43, 4-(2-hydroxypropan-2-yl)-N-((5-(1-methyl-1H-benzo[d]imidazol-6-yl)-2,3-dihydro-1H-inden-4-yl)carbamoyl)thiophene-2-sulfonamide] | 300 to 1000 |
| Cn1ccc2cc(-c3ccc4c(c3NC(=O)NS(=O)(=O)c3cc(C(C)(C)O)cs3)CCC4)cnc21 [Example 44, 4-(2-hydroxypropan-2-yl)—N-((5-(1-methyl-1H-pyrrolo[2,3-b]pyridin-5-yl)-2,3-dihydro-1H-inden-4-yl)carbamoyl)thiophene-2-sulfonamide] | 30 to 300 |
| CC(C)(O)c1csc(S(=O)(=O)NC(=O)Nc2c(-c3cncc4[nH]ccc34)ccc3c2CCC3)c1 [Example 45, N-((5-(1H-pyrrolo[2,3-c]pyridin-4-yl)-2,3-dihydro-1H-inden-4-yl)carbamoyl)-4-(2-hydroxypropan-2-yl)thiophene-2-sulfonamide] | 300 to 1000 |
| CC(C)(O)c1csc(S(=O)(=O)NC(=O)Nc2c(-c3cnc4[nH]ccc4c3)ccc3c2CCC3)c1 [Example 46, N-((5-(1H-pyrrolo[2,3-b]pyridin-5-yl)-2,3-dihydro-1H-inden-4-yl)carbamoyl)-4-(2-hydroxypropan-2-yl)thiophene-2-sulfonamide] | 30 to 300 |
| Cn1ccc2c(-c3ccc4c(c3NC(=O)NS(=O)(=O)c3cc(C(C)(C)O)cs3)CCC4)cncc21 [Example 47, 4-(2-hydroxypropan-2-yl)-N-((5-(1-methyl-1H-pyrrolo[2,3-c]pyridin-4-yl)-2,3-dihydro-1H-inden-4-yl)carbamoyl)thiophene-2-sulfonamide] | 300 to 1000 |
| Cn1ncc2c(-c3ccc4c(c3NC(=O)NS(=O)(=O)c3cc(C(C)(C)O)cs3)CCC4)ccnc21 [Example 48, 4-(2-hydroxypropan-2-yl)-N-((5-(1-methyl-1H-pyrazolo[3,4-b]pyridin-4-yl)-2,3-dihydro-1H-inden-4-yl)carbamoyl)thiophene-2-sulfonamide] | 30 to 300 |
